Experimental data from BindingDB's records for doi:10.7270/Q24T6GTZ (Burnham Center For Chemical Genomics, 2010).
pEC50: −log10 of the molar value.

Molecular target: Kappa-type opioid receptor (Homo sapiens, UniProt P41145)
Experiment: KOR agonist analogs, imaging readout, SAR follow-up, image-based (AID 2359)

Kappa-type opioid receptor, sequence (P41145 whole entry): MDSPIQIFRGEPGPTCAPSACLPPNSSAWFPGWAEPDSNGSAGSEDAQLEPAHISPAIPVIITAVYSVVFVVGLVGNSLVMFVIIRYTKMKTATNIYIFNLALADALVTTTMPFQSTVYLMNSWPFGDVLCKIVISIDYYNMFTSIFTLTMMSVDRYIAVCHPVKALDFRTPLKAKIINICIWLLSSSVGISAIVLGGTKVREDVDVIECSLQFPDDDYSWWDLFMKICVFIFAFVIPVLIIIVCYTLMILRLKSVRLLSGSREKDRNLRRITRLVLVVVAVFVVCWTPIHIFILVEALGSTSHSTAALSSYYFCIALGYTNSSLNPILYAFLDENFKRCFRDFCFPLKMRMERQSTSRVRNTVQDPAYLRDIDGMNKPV

Row | Compound | pEC50
1 | Oc1ccc(CN=Nc2ccnc3cc(Cl)ccc23)cc1O [(4Z)-4-[[2-(7-chloroquinolin-4-yl)hydrazinyl]methylidene]-2-hydroxycyclohexa-2,5-dien-1-one] | < 4.49
2 | CCC(N=Nc1ccnc2cc(Cl)ccc12)c1ccc(O)cc1 (configuration not stated) [4-[1-[2-(7-chloroquinolin-4-yl)hydrazinyl]propylidene]cyclohexa-2,5-dien-1-one] | < 4.49
